# Results: US20060003030A1, “Essential oils for treating and/ or preventing allergic disease” (priority 2004, published 2006)
# Columns and labels:
# [1] = test system: mouse macrophage cell line RAW 264.7; test: Inhibitory effect of essential oils on NO production by LPS-activated mouse macrophage cell line (Griess reagent); type: cell-based; details: positive control, concentration not given; LPS (Inducer) 60 ± 0.5, Blank 3.5 ± 0.3
# Experimental: The mouse macrophage cell line RAW 264.7 was purchased from Bioresources Collection & Research Center, Taiwan and numbered CCRC 60001. The cells were added to Dulbecco's Modified Eagle Medium (DMEM, GibcoBRL) containing 10% (v/v) fetal bovine serum (FBS, GibcoBRL) and then incubated in a CO2 incubator containing 5% CO2 at 37° C. The cells grow to 90% density and are then washed with phosphate buffered saline (PBS). The cells were colleted and diluted with fresh DMEM to the appropriate concentration.
# The mouse macrophage cells were transferred in a 96-well plate in a concentration of 10,000 cells/well. After incubating for 24 hours, the cells were activated with the medium containing 100 μg/ml Lipopolysaccharide (LPS, SIGMA) and 100·μg/ml Interferon-γ (INF-γ, GibcoBRL). Meanwhile, the essential oils of herbal medicine in different concentrations were added to the wells. After incubating for 24 hours, 50 μl of supernatants were respectively taken and put into a 96-well plate. […] Then, the absorbance of the resulting cell supernatants was determined with a microplate reader at a wavelength of […]. The percentage of nitric oxide can be calculated by the following formula: % nitric oxide=(sample absorptivity/control absorptivity)×100%.
# [2] = test system: PAF-induced platelet aggregation; test: Inhibitory activity of essential oils on PAF-induced platelet aggregation; type: cell-based, New Zealand rabbit; details: rabbit washed platelet suspension, PAF added 2 min after sample, aggregation observed 4 min
# Experimental: The anticoagulant “acid-citrate-dextrose” (ACD) was added to the blood taken from a New Zealand rabbit in a ratio of 1:6 by volume. The resulting blood was centrifuged at 190 g for 15 min at room temperature. After centrifugation, the supernatant containing platelet-rich plasma (PRP) was taken and 0.2 M EDTA was added. The resulting supernatant was centrifuged at 1000 g for 1.5 min. After centrifugation, the pellet containing RBC and WBC was removed and then PRP was centrifuged at 1000 g for 11 min. After centrifugation, the supernatant was removed and the platelet pellet was suspended in Ca^2+--free Tyrode's buffer (containing 1 mM Ca2+). […] The turbidity was determined with a Platelet Aggregation Chromogenic Kinetic System.
# 0.5 ml of platelet suspension was added to silicon-coated cuvette and put in a Platelet Aggregation Chromogenic Kinetic System and bathed for 2 min at 37° C. […] The ratio of aggregation was calculated by the following formula: Ratio of aggregation %=(absorptivity before adding PAF−absorptivity after adding PAF/(absorptivity before adding PAF−absorptivity of Tyrode's buffer)×100% The ratio of inhibition was calculated by the following formula: Ratio of inhibition %=100%−(ratio of aggregation of sample/ratio of aggregation of control×100%)
IC50 [2] [µg/mL],SMILES,Nitric oxide [1] [µM]
–,CNC(=N)NCCC[C@H](N)C(=O)O [L-NMMA],25 ± 0.6
1420,CCCCCCCCCCCCCCCCCCNC(=O)OCC(COP(=O)([O-])OCC[n+]1ccsc1)OC (centres unmarked) [CV-3988],–
